Assay results as given in patent US10168342B2, “Lipid probes and uses thereof” (THE SCRIPPS RESEARCH INSTITUTE, priority 2015, dated 2019).
Where two headings read alike, the source gives them in different places.

Experiments:
[1] = biological target: T1, AEA-DA lipid probe targets in Neuro2a cells (Mus musculus, UniProt P16014)
T1 sequence (P16014 21-677): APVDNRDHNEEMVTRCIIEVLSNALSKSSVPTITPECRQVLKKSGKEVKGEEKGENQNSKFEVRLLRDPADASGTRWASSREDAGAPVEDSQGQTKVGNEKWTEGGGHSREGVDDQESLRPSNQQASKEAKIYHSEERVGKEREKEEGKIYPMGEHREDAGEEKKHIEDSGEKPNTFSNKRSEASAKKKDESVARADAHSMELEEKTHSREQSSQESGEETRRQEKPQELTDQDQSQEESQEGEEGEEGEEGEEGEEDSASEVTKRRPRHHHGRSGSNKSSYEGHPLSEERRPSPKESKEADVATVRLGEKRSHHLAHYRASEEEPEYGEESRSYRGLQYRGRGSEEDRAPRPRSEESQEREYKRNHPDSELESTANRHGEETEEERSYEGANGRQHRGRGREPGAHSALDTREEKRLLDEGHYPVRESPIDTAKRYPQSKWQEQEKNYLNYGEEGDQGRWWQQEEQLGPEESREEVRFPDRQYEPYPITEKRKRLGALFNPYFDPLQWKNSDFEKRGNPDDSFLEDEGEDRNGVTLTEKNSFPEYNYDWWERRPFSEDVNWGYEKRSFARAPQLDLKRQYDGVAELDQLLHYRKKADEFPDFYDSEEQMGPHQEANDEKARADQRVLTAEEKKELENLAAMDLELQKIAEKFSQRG

[2] = biological target: T2, AEA-DA lipid probe targets in Neuro2a cells (Mus musculus, UniProt P46638)
T2 sequence (P46638 1-218): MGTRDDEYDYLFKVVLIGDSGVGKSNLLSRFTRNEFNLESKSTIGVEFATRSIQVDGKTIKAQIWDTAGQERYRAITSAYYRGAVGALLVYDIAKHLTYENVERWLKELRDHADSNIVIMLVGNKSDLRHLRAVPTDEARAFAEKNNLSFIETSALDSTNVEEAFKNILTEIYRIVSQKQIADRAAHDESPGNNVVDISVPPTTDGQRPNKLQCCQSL

[3] = biological target: AEA-DA lipid probe targets in Neuro2a cells (Mus musculus, UniProt P62821)
Chain of AEA-DA lipid probe targets in Neuro2a cells (Mus musculus, UniProt P62821) (P62821 whole entry): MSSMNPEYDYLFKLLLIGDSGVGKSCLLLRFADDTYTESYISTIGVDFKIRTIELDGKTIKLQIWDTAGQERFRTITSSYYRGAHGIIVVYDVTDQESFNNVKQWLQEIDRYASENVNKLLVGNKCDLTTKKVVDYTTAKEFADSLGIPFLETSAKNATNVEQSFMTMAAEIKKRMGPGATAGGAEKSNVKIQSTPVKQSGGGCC

[4] = biological target: T3, AEA-DA lipid probe targets in Neuro2a cells (Mus musculus, UniProt Q61712); conditions: for SILAC ratio, DNAJC1 (Q96KC8): Neuro2a cells, AEA-DA probe
T3 sequence (Q61712 44-552): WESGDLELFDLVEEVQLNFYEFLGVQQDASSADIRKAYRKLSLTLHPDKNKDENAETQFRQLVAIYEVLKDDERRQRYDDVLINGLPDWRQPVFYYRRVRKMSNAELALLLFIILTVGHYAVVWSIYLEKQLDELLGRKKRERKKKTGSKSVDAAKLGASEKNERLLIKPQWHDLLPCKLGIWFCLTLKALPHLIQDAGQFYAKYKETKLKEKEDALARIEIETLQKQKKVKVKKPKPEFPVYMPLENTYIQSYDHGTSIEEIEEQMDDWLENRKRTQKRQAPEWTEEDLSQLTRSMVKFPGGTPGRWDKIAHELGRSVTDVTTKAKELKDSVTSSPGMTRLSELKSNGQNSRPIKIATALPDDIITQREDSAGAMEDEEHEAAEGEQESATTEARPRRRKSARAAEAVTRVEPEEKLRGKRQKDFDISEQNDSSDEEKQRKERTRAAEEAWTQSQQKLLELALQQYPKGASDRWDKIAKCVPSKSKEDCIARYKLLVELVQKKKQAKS

[5] = biological target: T4, AEA-DA lipid probe targets in Neuro2a cells (Mus musculus, UniProt Q80ZW2)
T4 sequence (Q80ZW2 22-207): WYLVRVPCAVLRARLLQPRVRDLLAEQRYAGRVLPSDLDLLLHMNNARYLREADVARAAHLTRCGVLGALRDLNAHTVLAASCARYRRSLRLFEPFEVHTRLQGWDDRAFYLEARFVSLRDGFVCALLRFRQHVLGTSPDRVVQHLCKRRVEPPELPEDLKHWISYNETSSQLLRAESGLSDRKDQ

[6] = biological target: T5, AEA-DA lipid probe targets in Neuro2a cells (Mus musculus, UniProt Q8K0C4)
T5 sequence (Q8K0C4 1-503): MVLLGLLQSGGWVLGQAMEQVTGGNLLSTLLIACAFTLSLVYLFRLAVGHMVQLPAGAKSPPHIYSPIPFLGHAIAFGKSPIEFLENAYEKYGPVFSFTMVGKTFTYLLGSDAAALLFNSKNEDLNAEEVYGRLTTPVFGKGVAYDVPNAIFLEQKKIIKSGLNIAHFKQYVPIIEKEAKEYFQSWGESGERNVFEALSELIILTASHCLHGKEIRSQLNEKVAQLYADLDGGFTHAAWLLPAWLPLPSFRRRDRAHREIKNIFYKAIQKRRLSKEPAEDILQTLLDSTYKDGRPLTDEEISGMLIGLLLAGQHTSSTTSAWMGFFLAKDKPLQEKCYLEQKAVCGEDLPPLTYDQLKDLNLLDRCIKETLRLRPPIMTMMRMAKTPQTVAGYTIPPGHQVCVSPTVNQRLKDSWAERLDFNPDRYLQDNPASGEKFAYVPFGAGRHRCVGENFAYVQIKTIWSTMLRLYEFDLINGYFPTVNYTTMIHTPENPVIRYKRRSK

[7] = biological target: T6, AEA-DA lipid probe targets in Neuro2a cells (Mus musculus, UniProt Q8R2Y0); conditions: for SILAC ratio, ABHD6 (Q8R2Y0): Neuro2a cells, AEA-DA probe
T6 sequence (Q8R2Y0 1-336): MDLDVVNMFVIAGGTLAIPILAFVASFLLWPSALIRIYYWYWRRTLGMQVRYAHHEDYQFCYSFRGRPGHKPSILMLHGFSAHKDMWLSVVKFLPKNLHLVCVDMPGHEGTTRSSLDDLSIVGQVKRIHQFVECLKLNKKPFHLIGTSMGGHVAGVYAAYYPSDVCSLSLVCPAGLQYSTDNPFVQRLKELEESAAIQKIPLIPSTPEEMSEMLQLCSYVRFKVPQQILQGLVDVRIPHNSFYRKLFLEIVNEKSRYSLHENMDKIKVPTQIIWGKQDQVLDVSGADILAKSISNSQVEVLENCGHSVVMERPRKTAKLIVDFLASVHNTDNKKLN

Row | SMILES | SILAC ratio Chgb ([1]; competitor 25 μM) | SILAC ratio, Rab11b ([2]; competitor 25 μM) | SILAC ratio Rab1A ([3]; competitor 25 μM) | SILAC ratio, DNAJC1 (Q96KC8) ([4]; competitor 25 μM) | SILAC ratio, Dnajc1 ([4]; competitor 25 μM) | SILAC ratio Them6 ([5]; competitor 25 μM) | SILAC ratio Cyp51a1 ([6]; competitor 25 μM) | SILAC ratio, ABHD6 (Q8R2Y0) ([7]; competitor 25 μM) | SILAC ratio, Abhd6 ([7]; competitor 25 μM) | further results
1 | CCCCC/C=C\C/C=C\C/C=C\C/C=C\CCCC(=O)NCCO [AEA, anandamide, reference compound] | – | – | – | – | – | – | – | – | – | SILAC ratio Chgb ([1]; competitor 200 μM): 1.2; SILAC ratio, Rab11b ([2]; competitor 200 μM): 1.6; SILAC ratio Rab1A ([3]; competitor 200 μM): 1.2; SILAC ratio, DNAJC1 (Q96KC8) ([4]; competitor 200 μM): 2.1; SILAC ratio, Dnajc1 ([4]; competitor 200 μM): 2.1; SILAC ratio Them6 ([5]; competitor 200 μM): 1.9; SILAC ratio Cyp51a1 ([6]; competitor 200 μM): 1.8; SILAC ratio, ABHD6 (Q8R2Y0) ([7]; competitor 200 μM): 2.3; SILAC ratio, Abhd6 ([7]; competitor 200 μM): 2.3
2 | O=C(/C=C/c1cccnc1)NCCCCC1CCN(C(=O)c2ccccc2)CC1 [FK-866, reference compound] | 0.9 | 1.2 | 1.1 | 1.4 | 1.4 | 1.0 | 1.5 | 1.7 | 1.7 | –
3 | CN1CCN(C(=O)c2c(-c3ccccc3)c3cc([N+](=O)[O-])ccc3n2C)CC1 [KML110, (1-Methyl-5-nitro-3-phenyl-1H-indol-2-yl)(4-methylpiperazin-1-yl)methanone] | 1.1 | 1.5 | 1.3 | – | – | 1.3 | 1.2 | – | 2.6 | –
4 | CN1CCN(C(=O)c2[nH]c3ccc([N+](=O)[O-])cc3c2-c2ccccc2)CC1 [MJN228, (4-Methylpiperazin-1-yl)(5-nitro-3-phenyl-1H-indol-2-yl)methanone] | 0.9 | 1.6 | 1.3 | 1.6 | 1.6 | 1.3 | 2.2 | 1.7 | 1.7 | SILAC ratio Chgb ([1]; competitor 10 μM): 1.2; SILAC ratio Chgb ([1]; competitor 50 μM): 0.4; SILAC ratio Chgb ([1]; competitor 100 μM): 0.4; SILAC ratio, Rab11b ([2]; competitor 10 μM): 1.2; SILAC ratio, Rab11b ([2]; competitor 50 μM): 1.8; SILAC ratio, Rab11b ([2]; competitor 100 μM): 2.4; SILAC ratio Rab1A ([3]; competitor 10 μM): 1.1; SILAC ratio Rab1A ([3]; competitor 50 μM): 1.3; SILAC ratio Rab1A ([3]; competitor 100 μM): 1.3; SILAC ratio, Dnajc1 ([4]; competitor 10 μM): 1.0; SILAC ratio, Dnajc1 ([4]; competitor 50 μM): 1.5; SILAC ratio Them6 ([5]; competitor 10 μM): 1.2; SILAC ratio Them6 ([5]; competitor 100 μM): 1.3; SILAC ratio Cyp51a1 ([6]; competitor 10 μM): 1.5; SILAC ratio Cyp51a1 ([6]; competitor 50 μM): 2.3; SILAC ratio Cyp51a1 ([6]; competitor 100 μM): 3.1; SILAC ratio, Abhd6 ([7]; competitor 10 μM): 1.2; SILAC ratio, Abhd6 ([7]; competitor 50 μM): 2.3; SILAC ratio, Abhd6 ([7]; competitor 100 μM): 2.9
5 | C=CCN(C)CCCCCCOc1ccc(C(=O)c2ccc(Br)cc2)c(F)c1 [Ro 48-8071, reference compound] | 0.7 | 1.3 | 1.0 | 1.2 | 1.2 | 1.0 | 1.3 | 1.2 | 1.2 | –
